Results published in paper PMC5933747 (PLoS ONE, 2018).
Read-outs that look alike come from different tables or passages of the source.

Experiments:
Format in all cases: cell-based
human NaV1.7 = human NaV1.7 (Homo sapiens, UniProt Q15858); test: IonWorks Quattro (IWQ) electrophysiology, human NaV1.7; details: read-out: Ala mutant IWQ IC50 NaV1.7
human NaV1.5 = human NaV1.5 (Homo sapiens, UniProt Q14524); test: IonWorks Quattro (IWQ) electrophysiology, human NaV1.5
human NaV1.4 = human NaV1.4 (Homo sapiens, UniProt P35499); test: IonWorks Quattro (IWQ) electrophysiology, human NaV1.4
Sequence of human NaV1.4 (P35499 whole entry): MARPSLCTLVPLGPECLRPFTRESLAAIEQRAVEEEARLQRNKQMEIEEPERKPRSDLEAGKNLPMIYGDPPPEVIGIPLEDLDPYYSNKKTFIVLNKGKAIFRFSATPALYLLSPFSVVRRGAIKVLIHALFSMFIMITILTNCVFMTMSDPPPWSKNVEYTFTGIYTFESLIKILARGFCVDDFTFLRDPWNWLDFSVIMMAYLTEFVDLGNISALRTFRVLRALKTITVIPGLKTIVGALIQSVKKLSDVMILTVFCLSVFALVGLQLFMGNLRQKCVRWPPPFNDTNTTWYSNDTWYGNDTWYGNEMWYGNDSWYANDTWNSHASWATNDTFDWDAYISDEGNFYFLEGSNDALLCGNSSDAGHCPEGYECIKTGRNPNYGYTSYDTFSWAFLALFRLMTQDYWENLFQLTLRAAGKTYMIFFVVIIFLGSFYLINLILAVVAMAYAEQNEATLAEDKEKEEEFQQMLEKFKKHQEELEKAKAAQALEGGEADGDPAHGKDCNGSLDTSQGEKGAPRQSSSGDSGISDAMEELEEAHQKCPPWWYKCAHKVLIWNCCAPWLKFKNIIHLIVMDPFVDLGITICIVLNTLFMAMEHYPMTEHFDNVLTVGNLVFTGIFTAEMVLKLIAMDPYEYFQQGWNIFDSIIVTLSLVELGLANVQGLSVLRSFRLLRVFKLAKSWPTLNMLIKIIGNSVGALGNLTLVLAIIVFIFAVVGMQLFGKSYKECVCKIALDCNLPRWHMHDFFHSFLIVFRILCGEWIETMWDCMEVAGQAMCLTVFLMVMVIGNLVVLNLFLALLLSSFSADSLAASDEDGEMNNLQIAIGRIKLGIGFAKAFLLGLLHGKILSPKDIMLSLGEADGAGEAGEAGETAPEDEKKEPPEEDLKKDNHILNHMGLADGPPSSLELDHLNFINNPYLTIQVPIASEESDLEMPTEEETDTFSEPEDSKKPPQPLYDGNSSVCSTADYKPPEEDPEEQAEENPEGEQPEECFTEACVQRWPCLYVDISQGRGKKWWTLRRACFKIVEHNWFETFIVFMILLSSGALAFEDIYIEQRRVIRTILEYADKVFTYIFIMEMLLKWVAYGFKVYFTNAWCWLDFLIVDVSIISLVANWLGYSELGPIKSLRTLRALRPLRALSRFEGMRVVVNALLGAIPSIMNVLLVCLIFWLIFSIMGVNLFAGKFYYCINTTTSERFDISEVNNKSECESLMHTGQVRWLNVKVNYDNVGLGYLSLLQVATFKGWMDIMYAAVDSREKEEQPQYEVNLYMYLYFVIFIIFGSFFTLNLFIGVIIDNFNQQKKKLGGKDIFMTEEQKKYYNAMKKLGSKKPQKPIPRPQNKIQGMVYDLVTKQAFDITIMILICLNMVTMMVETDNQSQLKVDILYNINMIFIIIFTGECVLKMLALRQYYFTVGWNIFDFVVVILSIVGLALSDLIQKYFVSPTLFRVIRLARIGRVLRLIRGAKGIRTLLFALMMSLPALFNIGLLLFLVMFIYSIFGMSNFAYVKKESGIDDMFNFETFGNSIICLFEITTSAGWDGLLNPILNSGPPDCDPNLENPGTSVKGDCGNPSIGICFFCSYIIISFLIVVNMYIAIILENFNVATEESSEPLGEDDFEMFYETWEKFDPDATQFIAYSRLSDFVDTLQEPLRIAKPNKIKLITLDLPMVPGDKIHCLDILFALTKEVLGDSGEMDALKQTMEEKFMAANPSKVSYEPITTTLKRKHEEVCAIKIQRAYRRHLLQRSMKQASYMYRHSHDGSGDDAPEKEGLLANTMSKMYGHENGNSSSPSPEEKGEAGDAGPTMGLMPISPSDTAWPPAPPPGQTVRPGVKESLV

[1] = read-out: Ala mutant IWQ IC50 NaV1.4
[2] = human, read-out: Ala mutant IWQ IC50 NaV1.5
[3] = IWQ platform, single-residue Ala scan of JzTx-V, read-out: Ala mutant IWQ IC50 NaV1.5
[4] = human, read-out: Glu mutant IWQ IC50 NaV1.5

Sequence of human NaV1.5 (Q14524 whole entry): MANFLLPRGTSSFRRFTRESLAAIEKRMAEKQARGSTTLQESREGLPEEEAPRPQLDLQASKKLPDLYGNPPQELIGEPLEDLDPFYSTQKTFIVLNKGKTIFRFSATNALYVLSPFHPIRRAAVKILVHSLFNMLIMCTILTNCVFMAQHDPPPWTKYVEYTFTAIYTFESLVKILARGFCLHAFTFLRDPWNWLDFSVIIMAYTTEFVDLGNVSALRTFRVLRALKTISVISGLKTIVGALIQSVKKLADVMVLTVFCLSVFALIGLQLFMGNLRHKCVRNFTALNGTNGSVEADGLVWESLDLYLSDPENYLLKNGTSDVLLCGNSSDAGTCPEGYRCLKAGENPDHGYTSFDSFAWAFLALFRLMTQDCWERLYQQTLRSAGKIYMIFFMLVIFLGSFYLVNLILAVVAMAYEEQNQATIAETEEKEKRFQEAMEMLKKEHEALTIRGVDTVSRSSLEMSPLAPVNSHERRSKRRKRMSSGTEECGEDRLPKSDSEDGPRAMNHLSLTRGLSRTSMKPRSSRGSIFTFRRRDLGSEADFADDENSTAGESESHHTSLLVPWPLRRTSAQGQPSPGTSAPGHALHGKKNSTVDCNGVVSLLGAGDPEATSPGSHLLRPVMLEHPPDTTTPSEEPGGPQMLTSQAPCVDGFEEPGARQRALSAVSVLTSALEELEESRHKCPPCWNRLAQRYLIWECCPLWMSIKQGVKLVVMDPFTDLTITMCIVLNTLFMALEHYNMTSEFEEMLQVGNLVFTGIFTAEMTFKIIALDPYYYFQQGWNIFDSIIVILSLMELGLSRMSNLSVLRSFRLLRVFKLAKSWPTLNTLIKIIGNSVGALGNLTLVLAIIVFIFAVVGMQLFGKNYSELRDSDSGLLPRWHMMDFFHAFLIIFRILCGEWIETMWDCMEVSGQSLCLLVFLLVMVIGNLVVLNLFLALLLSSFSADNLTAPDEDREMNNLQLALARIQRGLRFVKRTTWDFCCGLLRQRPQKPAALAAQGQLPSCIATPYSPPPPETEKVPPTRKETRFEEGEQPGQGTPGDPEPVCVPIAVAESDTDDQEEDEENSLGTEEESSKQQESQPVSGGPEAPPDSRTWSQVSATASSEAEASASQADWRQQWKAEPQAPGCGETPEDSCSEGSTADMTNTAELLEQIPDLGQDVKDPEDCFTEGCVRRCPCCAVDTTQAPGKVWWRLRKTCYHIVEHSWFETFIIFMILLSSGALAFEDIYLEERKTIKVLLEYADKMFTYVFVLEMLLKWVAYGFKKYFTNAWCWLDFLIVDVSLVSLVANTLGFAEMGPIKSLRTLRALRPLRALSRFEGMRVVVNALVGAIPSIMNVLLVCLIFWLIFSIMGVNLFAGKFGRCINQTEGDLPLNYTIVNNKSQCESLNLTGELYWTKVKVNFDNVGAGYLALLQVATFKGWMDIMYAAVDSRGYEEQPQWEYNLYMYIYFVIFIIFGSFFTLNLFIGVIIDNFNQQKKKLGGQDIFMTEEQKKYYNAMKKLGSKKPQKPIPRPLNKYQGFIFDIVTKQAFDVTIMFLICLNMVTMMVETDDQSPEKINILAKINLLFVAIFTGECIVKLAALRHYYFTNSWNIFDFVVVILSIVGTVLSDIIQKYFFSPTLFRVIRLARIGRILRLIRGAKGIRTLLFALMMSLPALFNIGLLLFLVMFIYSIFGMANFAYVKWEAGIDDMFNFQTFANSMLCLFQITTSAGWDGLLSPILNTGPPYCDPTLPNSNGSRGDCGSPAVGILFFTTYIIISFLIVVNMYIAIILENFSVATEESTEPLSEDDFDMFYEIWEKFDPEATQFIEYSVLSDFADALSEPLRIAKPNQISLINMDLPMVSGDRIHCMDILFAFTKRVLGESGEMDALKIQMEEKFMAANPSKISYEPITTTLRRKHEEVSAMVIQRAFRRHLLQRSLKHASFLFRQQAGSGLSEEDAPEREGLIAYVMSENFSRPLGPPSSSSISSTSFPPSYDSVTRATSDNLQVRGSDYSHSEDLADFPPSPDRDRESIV

Structure (SMILES) | IC50 (human NaV1.4; [1]) | IC50 (human NaV1.5; [2]) | IC50 (human NaV1.5; [4]) | also measured
CC[C@H](C)[C@H](NC(=O)[C@@H](NC(=O)[C@H](CCCCN)NC(=O)[C@H](CCCNC(=N)N)NC(=O)[C@@H]1CSSC[C@@H]2NC(=O)[C@H](C)NC(=O)[C@H](CCCNC(=N)N)NC(=O)[C@H](CCCCN)NC(=O)[C@H](CO)NC(=O)[C@H](C)NC(=O)[C@@H]3CSSC[C@H](NC(=O)[C@H](CCCNC(=N)N)NC(=O)[C@H](CC(C)C)NC(=O)CNC(=O)[C@H](CCC(=O)O)NC(=O)[C@H](CSSC[C@H](NC(=O)[C@@H](N)Cc4ccc(O)cc4)C(=O)N[C@@H](CCC(N)=O)C(=O)N[C@@H](CCCCN)C(=O)N[C@@H](Cc4c[nH]c5ccccc45)C(=O)N[C@@H](CCSC)C(=O)N[C@@H](Cc4c[nH]c5ccccc45)C(=O)N[C@@H]([C@@H](C)O)C(=O)N3)NC2=O)C(=O)N[C@@H](CCCCN)C(=O)N[C@@H](CC(C)C)C(=O)N[C@@H](Cc2c[nH]c3ccccc23)C(=O)N1)[C@@H](C)CC)C(N)=O [D10 Ala mutant] | 0.917 µM |  |  | IC50 (human NaV1.7): 0.345 µM; IC50 (human NaV1.5; read-out: Ala mutant IWQ IC50 NaV1.5): > 10 µM
CC[C@H](C)[C@H](NC(=O)[C@@H](NC(=O)[C@H](CCCCN)NC(=O)[C@H](CCCNC(=N)N)NC(=O)[C@@H]1CSSC[C@@H]2NC(=O)[C@H](C)NC(=O)[C@H](CCCNC(=N)N)NC(=O)[C@H](CCCCN)NC(=O)[C@H](CO)NC(=O)[C@H](CC(=O)O)NC(=O)[C@@H]3CSSC[C@H](NC(=O)[C@H](CCCNC(=N)N)NC(=O)[C@H](CC(C)C)NC(=O)[C@H](C)NC(=O)[C@H](CCC(=O)O)NC(=O)[C@H](CSSC[C@H](NC(=O)[C@@H](N)Cc4ccc(O)cc4)C(=O)N[C@@H](CCC(N)=O)C(=O)N[C@@H](CCCCN)C(=O)N[C@@H](Cc4c[nH]c5ccccc45)C(=O)N[C@@H](CCSC)C(=O)N[C@@H](Cc4c[nH]c5ccccc45)C(=O)N[C@@H]([C@@H](C)O)C(=O)N3)NC2=O)C(=O)N[C@@H](CCCCN)C(=O)N[C@@H](CC(C)C)C(=O)N[C@@H](Cc2c[nH]c3ccccc23)C(=O)N1)[C@@H](C)CC)C(N)=O [G18 Ala mutant] | 0.265 µM | > 5 µM |  | 
CC[C@H](C)[C@H](NC(=O)[C@@H](NC(=O)[C@H](CCCCN)NC(=O)[C@H](CCCNC(=N)N)NC(=O)[C@@H]1CSSC[C@@H]2NC(=O)[C@H](C)NC(=O)[C@H](CCCNC(=N)N)NC(=O)[C@H](CCCCN)NC(=O)[C@H](CO)NC(=O)[C@H](CC(=O)O)NC(=O)[C@@H]3CSSC[C@H](NC(=O)[C@H](C)NC(=O)[C@H](CC(C)C)NC(=O)CNC(=O)[C@H](CCC(=O)O)NC(=O)[C@H](CSSC[C@H](NC(=O)[C@@H](N)Cc4ccc(O)cc4)C(=O)N[C@@H](CCC(N)=O)C(=O)N[C@@H](CCCCN)C(=O)N[C@@H](Cc4c[nH]c5ccccc45)C(=O)N[C@@H](CCSC)C(=O)N[C@@H](Cc4c[nH]c5ccccc45)C(=O)N[C@@H]([C@@H](C)O)C(=O)N3)NC2=O)C(=O)N[C@@H](CCCCN)C(=O)N[C@@H](CC(C)C)C(=O)N[C@@H](Cc2c[nH]c3ccccc23)C(=O)N1)[C@@H](C)CC)C(N)=O [R20 Ala mutant] | 0.425 µM | 4.64 µM |  | 
CC[C@H](C)[C@H](NC(=O)[C@@H](NC(=O)[C@H](CCCCN)NC(=O)[C@H](CCCNC(=N)N)NC(=O)[C@@H]1CSSC[C@@H]2NC(=O)[C@H](C)NC(=O)[C@H](CCCNC(=N)N)NC(=O)[C@H](CCCCN)NC(=O)[C@H](C)NC(=O)[C@H](CC(=O)O)NC(=O)[C@@H]3CSSC[C@H](NC(=O)[C@H](CCCNC(=N)N)NC(=O)[C@H](CC(C)C)NC(=O)CNC(=O)[C@H](CCC(=O)O)NC(=O)[C@H](CSSC[C@H](NC(=O)[C@@H](N)Cc4ccc(O)cc4)C(=O)N[C@@H](CCC(N)=O)C(=O)N[C@@H](CCCCN)C(=O)N[C@@H](Cc4c[nH]c5ccccc45)C(=O)N[C@@H](CCSC)C(=O)N[C@@H](Cc4c[nH]c5ccccc45)C(=O)N[C@@H]([C@@H](C)O)C(=O)N3)NC2=O)C(=O)N[C@@H](CCCCN)C(=O)N[C@@H](CC(C)C)C(=O)N[C@@H](Cc2c[nH]c3ccccc23)C(=O)N1)[C@@H](C)CC)C(N)=O [S11 Ala mutant] |  |  |  | IC50 (human NaV1.5; [3]): 3.56 µM
CC[C@H](C)[C@H](NC(=O)[C@@H](NC(=O)[C@H](CCCCN)NC(=O)[C@H](CCCNC(=N)N)NC(=O)[C@@H]1CSSC[C@@H]2NC(=O)[C@H](C)NC(=O)[C@H](CCCNC(=N)N)NC(=O)[C@H](CCCCN)NC(=O)[C@H](CCC(=O)O)NC(=O)[C@H](CC(=O)O)NC(=O)[C@@H]3CSSC[C@H](NC(=O)[C@H](CCCNC(=N)N)NC(=O)[C@H](CC(C)C)NC(=O)CNC(=O)[C@H](CCC(=O)O)NC(=O)[C@H](CSSC[C@H](NC(=O)[C@@H](N)Cc4ccc(O)cc4)C(=O)N[C@@H](CCC(N)=O)C(=O)N[C@@H](CCCCN)C(=O)N[C@@H](Cc4c[nH]c5ccccc45)C(=O)N[C@@H](CCSC)C(=O)N[C@@H](Cc4c[nH]c5ccccc45)C(=O)N[C@@H]([C@@H](C)O)C(=O)N3)NC2=O)C(=O)N[C@@H](CCCCN)C(=O)N[C@@H](CC(C)C)C(=O)N[C@@H](Cc2c[nH]c3ccccc23)C(=O)N1)[C@@H](C)CC)C(N)=O [S11 Glu mutant] |  |  | > 5 µM | 
CC[C@H](C)[C@H](NC(=O)[C@@H](NC(=O)[C@H](CCCCN)NC(=O)[C@H](CCCNC(=N)N)NC(=O)[C@@H]1CSSC[C@@H]2NC(=O)[C@H](C)NC(=O)[C@H](CCCNC(=N)N)NC(=O)[C@H](CCCCN)NC(=O)[C@H](CO)NC(=O)[C@H](CC(=O)O)NC(=O)[C@@H]3CSSC[C@H](NC(=O)[C@H](CCCNC(=N)N)NC(=O)[C@H](CC(C)C)NC(=O)CNC(=O)[C@H](CCC(=O)O)NC(=O)[C@H](CSSC[C@H](NC(=O)[C@@H](N)Cc4ccc(O)cc4)C(=O)N[C@@H](CCC(N)=O)C(=O)N[C@@H](CCCCN)C(=O)N[C@@H](Cc4c[nH]c5ccccc45)C(=O)N[C@@H](CCSC)C(=O)N[C@@H](Cc4c[nH]c5ccccc45)C(=O)N[C@@H](C)C(=O)N3)NC2=O)C(=O)N[C@@H](CCCCN)C(=O)N[C@@H](CC(C)C)C(=O)N[C@@H](Cc2c[nH]c3ccccc23)C(=O)N1)[C@@H](C)CC)C(N)=O [T8 Ala mutant] |  | > 5 µM |  | 
CC[C@H](C)[C@H](NC(=O)[C@@H](NC(=O)[C@H](CCCCN)NC(=O)[C@H](CCCNC(=N)N)NC(=O)[C@@H]1CSSC[C@@H]2NC(=O)[C@H](C)NC(=O)[C@H](CCCNC(=N)N)NC(=O)[C@H](CCCCN)NC(=O)[C@H](CO)NC(=O)[C@H](CC(=O)O)NC(=O)[C@@H]3CSSC[C@H](NC(=O)[C@H](CCCNC(=N)N)NC(=O)[C@H](CC(C)C)NC(=O)CNC(=O)[C@H](CCC(=O)O)NC(=O)[C@H](CSSC[C@H](NC(=O)[C@@H](N)Cc4ccc(O)cc4)C(=O)N[C@@H](CCC(N)=O)C(=O)N[C@@H](CCCCN)C(=O)N[C@@H](Cc4c[nH]c5ccccc45)C(=O)N[C@@H](CCSC)C(=O)N[C@@H](C)C(=O)N[C@@H]([C@@H](C)O)C(=O)N3)NC2=O)C(=O)N[C@@H](CCCCN)C(=O)N[C@@H](CC(C)C)C(=O)N[C@@H](Cc2c[nH]c3ccccc23)C(=O)N1)[C@@H](C)CC)C(N)=O [W7 Ala mutant] |  | > 5 µM |  | 
CC[C@H](C)[C@H](NC(=O)[C@@H](NC(=O)[C@H](CCCCN)NC(=O)[C@H](CCCNC(=N)N)NC(=O)[C@@H]1CSSC[C@@H]2NC(=O)[C@H](C)NC(=O)[C@H](CCCNC(=N)N)NC(=O)[C@H](CCCCN)NC(=O)[C@H](CO)NC(=O)[C@H](CC(=O)O)NC(=O)[C@@H]3CSSC[C@H](NC(=O)[C@H](CCCNC(=N)N)NC(=O)[C@H](CC(C)C)NC(=O)CNC(=O)[C@H](CCC(=O)O)NC(=O)[C@H](CSSC[C@H](NC(=O)[C@@H](N)Cc4ccc(O)cc4)C(=O)N[C@@H](CCC(N)=O)C(=O)N[C@@H](CCCCN)C(=O)N[C@@H](Cc4c[nH]c5ccccc45)C(=O)N[C@@H](CCSC)C(=O)N[C@@H](CCC(=O)O)C(=O)N[C@@H]([C@@H](C)O)C(=O)N3)NC2=O)C(=O)N[C@@H](CCCCN)C(=O)N[C@@H](CC(C)C)C(=O)N[C@@H](Cc2c[nH]c3ccccc23)C(=O)N1)[C@@H](C)CC)C(N)=O [W7 Glu mutant] |  |  | > 5 µM | 
CC[C@H](C)[C@H](NC(=O)[C@@H](NC(=O)[C@H](CCCCN)NC(=O)[C@H](CCCNC(=N)N)NC(=O)[C@@H]1CSSC[C@@H]2NC(=O)[C@H](C)NC(=O)[C@H](CCCNC(=N)N)NC(=O)[C@H](CCCCN)NC(=O)[C@H](CO)NC(=O)[C@H](CC(=O)O)NC(=O)[C@@H]3CSSC[C@H](NC(=O)[C@H](CCCNC(=N)N)NC(=O)[C@H](CC(C)C)NC(=O)CNC(=O)[C@H](CCC(=O)O)NC(=O)[C@H](CSSC[C@H](NC(=O)[C@H](C)N)C(=O)N[C@@H](CCC(N)=O)C(=O)N[C@@H](CCCCN)C(=O)N[C@@H](Cc4c[nH]c5ccccc45)C(=O)N[C@@H](CCSC)C(=O)N[C@@H](Cc4c[nH]c5ccccc45)C(=O)N[C@@H]([C@@H](C)O)C(=O)N3)NC2=O)C(=O)N[C@@H](CCCCN)C(=O)N[C@@H](CC(C)C)C(=O)N[C@@H](Cc2c[nH]c3ccccc23)C(=O)N1)[C@@H](C)CC)C(N)=O [Y1 Ala mutant] |  |  |  | IC50 (human NaV1.5; [3]): 3.07 µM
CC[C@H](C)[C@H](NC(=O)[C@@H](NC(=O)[C@H](CCCCN)NC(=O)[C@H](CCCNC(=N)N)NC(=O)[C@@H]1CSSC[C@@H]2NC(=O)[C@H](C)NC(=O)[C@H](CCCNC(=N)N)NC(=O)[C@H](CCCCN)NC(=O)[C@H](CO)NC(=O)[C@H](CC(=O)O)NC(=O)[C@@H]3CSSC[C@H](NC(=O)[C@H](CCCNC(=N)N)NC(=O)[C@H](CC(C)C)NC(=O)CNC(=O)[C@H](CCC(=O)O)NC(=O)[C@H](CSSC[C@H](NC(=O)[C@@H](N)CCC(=O)O)C(=O)N[C@@H](CCC(N)=O)C(=O)N[C@@H](CCCCN)C(=O)N[C@@H](Cc4c[nH]c5ccccc45)C(=O)N[C@@H](CCSC)C(=O)N[C@@H](Cc4c[nH]c5ccccc45)C(=O)N[C@@H]([C@@H](C)O)C(=O)N3)NC2=O)C(=O)N[C@@H](CCCCN)C(=O)N[C@@H](CC(C)C)C(=O)N[C@@H](Cc2c[nH]c3ccccc23)C(=O)N1)[C@@H](C)CC)C(N)=O [Y1 Glu mutant] |  |  | > 5 µM | IC50 (human NaV1.4; read-out: Glu mutant IWQ IC50 NaV1.4): 0.235 µM
